Laboratory results as given in the supplement of paper PMC11061612.

Assays:
Assay in all cases: Bliss excess, mean over the matrix (fraction); higher = more synergy
ES6 (Ewing's Sarcoma) = test system: ES6 (Ewing's Sarcoma)
In short: (§1)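 After 24 hours at 37°C and 5% CO2 in 1536-well plates, cells in DMEM/F12 or RPMI plus 10% FBS received two-drug dose matrices for 72 hours. Viability came from CellTiter-Glo 2.0 luminescence and was scaled as inhibition, anchored at 0 by vehicle wells and at 1 by blank wells. Combination Emax is taken as the second-highest inhibition in the matrix, and Bliss excess as the observed combination effect less EA + EB − EA·EB, with EA and EB the single-agent effects.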

[1] = test system: NCI-H1876 (Small Cell Lung Carcinoma)
In short: as §1

[2] = test system: P32-ISH (Burkitt's Lymphoma)
In short: as §1

[3] = test system: C-33-A (Cervical Carcinoma)
In short: as §1

NCI-H226 (Mesothelioma) = test system: NCI-H226 (Mesothelioma)
In short: as §1

T47D (Breast Carcinoma) = test system: T47D (Breast Carcinoma)
In short: as §1

NB1 (Neuroblastoma) = test system: NB1 (Neuroblastoma)
In short: as §1

[4] = test system: MOLP-8 (Plasma Cell Myeloma)
In short: as §1

[5] = test system: P30-OHK (B-Lymphoblastic Leukemia)
In short: as §1

SK-N-SH (Neuroblastoma) = test system: SK-N-SH (Neuroblastoma)
In short: as §1

[6] = test system: LS-1034 (Colorectal Carcinoma)
In short: as §1

[7] = test system: PA-TU-8988T (Pancreatic Carcinoma)
In short: as §1

GAK (Melanoma) = test system: GAK (Melanoma)
In short: as §1

[8] = test system: OAW-28 (Ovarian Carcinoma)
In short: as §1

[9] = test system: OVCAR-3 (Ovarian Carcinoma)
In short: as §1

[10] = test system: CPC-N (Small Cell Lung Carcinoma)
In short: as §1

[11] = test system: COR-L88 (Small Cell Lung Carcinoma)
In short: as §1

[12] = test system: HT-1080 (Other Solid Carcinomas)
In short: as §1

[13] = test system: MM1S (Plasma Cell Myeloma)
In short: as §1

[14] = test system: DBTRG-05MG (Glioblastoma)
In short: as §1

Structure (SMILES) | Bliss excess (ES6 (Ewing's Sarcoma)) | Bliss excess [1] | Bliss excess [2] | Bliss excess [3] | Bliss excess (NCI-H226 (Mesothelioma)) | Bliss excess (T47D (Breast Carcinoma)) | Bliss excess (NB1 (Neuroblastoma)) | Bliss excess [4] | Bliss excess [5] | Bliss excess (SK-N-SH (Neuroblastoma)) | Bliss excess [6] | Bliss excess [7] | Bliss excess (GAK (Melanoma)) | Bliss excess [8] | Bliss excess [9] | Bliss excess [10] | Bliss excess [11] | Bliss excess [12] | Bliss excess [13] | Bliss excess [14]
COc1cccc(OCCCN)c1-c1cc(Nc2cnc(C#N)cn2)n[nH]1 [Prexasertib] + CN(C)CCCOc1ccc(-c2ccc3ncc4c(c3c2)n(C2CCOCC2)c(=O)n4C)cn1 [AZD0156] (first compound max 1 µM, 7x7, partner max 1 µM) | 0.0091 | -0.044 | -0.0238 | -0.0158 | -0.0611 | -0.0302 | 0.142 | -0.0203 | -0.045 | -0.0496 | -0.0471 | 0.0179 | 0.0668 | -0.0139 | -0.0178 | 0.0081 | -0.0137 | 0.0241 | -0.0718 | -0.0209
COc1cccc(OCCCN)c1-c1cc(Nc2cnc(C#N)cn2)n[nH]1 [Prexasertib] + C[C@@H]1COCCN1C2=NC(=NC(=C2)C3(CC3)[S@](=N)(=O)C)C4=C5C=CNC5=NC=C4 [AZD6738] (first compound max 1 µM, 7x7, partner max 10 µM) | 0.0366 | 0.0095 | -0.0127 | 0.0091 | 0.01 | 0.0003 | 0.0001 | -0.0366 | -0.0333 | -0.0425 | 0.035 | 0.0224 | -0.0092 | 0.0102 | 0.032 | -0.013 | -0.0483 | -0.0089 | -0.0953 | -0.0378
COc1cccc(OCCCN)c1-c1cc(Nc2cnc(C#N)cn2)n[nH]1 [Prexasertib] + Cc1cc2ncnn2cc1Nc1ncc2c(n1)n(C1CCOCC1)c(=O)n2C [AZD7648] (first compound max 1 µM, 7x7, partner max 10 µM) | 0.0027 | -0.0713 | -0.0068 | -0.0283 | -0.0568 | -0.0055 | 0.0251 | -0.013 | -0.0301 | -0.0138 | -0.0229 | 0.0389 | -0.0028 | -0.025 | -0.0213 | -0.0459 | -0.0628 | 0.0234 | -0.0108 | -0.0105
COc1cccc(OCCCN)c1-c1cc(Nc2cnc(C#N)cn2)n[nH]1 [Prexasertib] + O=C(c1cc(Cc2n[nH]c(=O)c3ccccc23)ccc1F)N1CCN(C(=O)C2CC2)CC1 [Olaparib] (first compound max 1 µM, 7x7, partner max 10 µM) | 0.0253 | -0.0338 | -0.0205 | -0.0329 | -0.0802 | -0.0093 | -0.0411 | -0.0802 | -0.0074 | -0.0217 | -0.027 | -0.0057 | -0.0159 | -0.0348 | 0.0265 | -0.0458 | -0.157 | 0.0164 | -0.0683 | -0.025
COc1cc2c(cc1OCCCCCOc1cc3c(cc1OC)C(=O)N1C=C(C)C[C@H]1C=N3)N=C[C@@H]1CC(C)=CN1C2=O [SG3199] + O=C(c1cc(Cc2n[nH]c(=O)c3ccccc23)ccc1F)N1CCN(C(=O)C2CC2)CC1 [Olaparib] (first compound max 0.001 µM, 7x7, partner max 10 µM) | -0.0231 | -0.0267 | -0.0164 | -0.0476 | -0.0581 | -0.0449 | -0.0418 | 0.002 | -0.0422 | -0.0454 | -0.0462 | 0.0053 | -0.0238 | -0.0263 | -0.0205 | -0.0062 | -0.0133 | -0.02 | 0.0663 | -0.0357
CCc1c2c(nc3ccc(O)cc13)-c1cc3c(c(=O)n1C2)COC(=O)[C@]3(O)CC [SN-38] + CN(C)CCCOc1ccc(-c2ccc3ncc4c(c3c2)n(C2CCOCC2)c(=O)n4C)cn1 [AZD0156] (first compound max 0.3 µM, 7x7, partner max 1 µM) | 0.0441 | -0.0111 | 0.0657 | 0.0058 | -0.0287 | -0.0023 | -0.0476 | -0.142 | 0.0969 | -0.104 | 0.139 | 0.0755 | 0.0182 | -0.0053 | -0.037 | 0.199 | -0.0636 | 0.0132 | -0.0498 | -0.019
C[C@@H](c1ccc2nccn2c1)n1nnc2ncc(-c3cnn(C)c3)nc21 [Savolitinib] + CC1(C)CCC(CN2CCN(c3ccc(C(=O)NS(=O)(=O)c4ccc(NCC5CCOCC5)c([N+](=O)[O-])c4)c(Oc4cnc5[nH]ccc5c4)c3)CC2)=C(c2ccc(Cl)cc2)C1 [Venetoclax] (first compound max 1 µM, 7x7, partner max 1 µM) | -0.0344 | -0.0486 | -0.0188 | -0.0466 | -0.0342 | -0.0753 | -0.0516 | -0.0194 | -0.0198 | -0.0289 | -0.0465 | -0.0763 | -0.0762 | -0.0331 | -0.0399 | -0.0454 | -0.021 | -0.0676 | -0.0663 | -0.0572
C[C@@H](c1ccc2nccn2c1)n1nnc2ncc(-c3cnn(C)c3)nc21 [Savolitinib] + Cc1c2c(nn1C)CSCc1cc(n(C)n1)CSc1cc(c3ccccc3c1)OCCCc1c(C(=O)O)n(C)c3c-2c(Cl)ccc13 [AZD5991] (first compound max 1 µM, 7x7, partner max 1 µM) | -0.0384 | 0.0044 | -0.0162 | -0.0084 | -0.04 | -0.0426 | -0.0355 | -0.0219 | 0.0046 | -0.0501 | -0.022 | -0.0205 | 0.0201 | -0.0129 | -0.0341 | -0.0179 | -0.0019 | -0.0475 | 0.021 | -0.0596
Cn1cnc2c(F)c(Nc3ccc(Br)cc3Cl)c(C(=O)NOCCO)cc21 [Selumetinib] + C=CCn1c(=O)c2cnc(Nc3ccc(N4CCN(C)CC4)cc3)nc2n1-c1cccc(C(C)(C)O)n1 [AZD1775] (first compound max 10 µM, partner max 1 µM) | -0.0564 | -0.021 | -0.0186 | 0.021 | -0.0331 | -0.0179 | -0.0731 | 0.0535 | -0.0789 | -0.11 | -0.038 | -0.0202 | -0.008 | -0.0604 | -0.0737 | -0.0858 | -0.011 | -0.0299 | -0.0433 | 0.0098
Cn1cnc2c(F)c(Nc3ccc(Br)cc3Cl)c(C(=O)NOCCO)cc21 [Selumetinib] + CC(C)n1c(=O)n(C)c2cnc3cc(F)c(-c4ccc(OCCCN5CCCCC5)nc4)cc3c21 [AZD1390] (first compound max 10 µM, 7x7, partner max 0.3 µM) | -0.0639 | 0.0068 | -0.0083 | 0.0134 | -0.0344 | -0.0468 | -0.0646 | -0.0274 | -0.0043 | -0.0624 | -0.0198 | -0.0269 | -0.0415 | 0.0193 | -0.0387 | -0.0396 | -0.0086 | -0.0697 | 0.0258 | 0.0213
Cn1cnc2c(F)c(Nc3ccc(Br)cc3Cl)c(C(=O)NOCCO)cc21 [Selumetinib] + CCN(CCO)CCCOc1ccc2c(Nc3cc(CC(=O)Nc4cccc(F)c4)[nH]n3)ncnc2c1 [AZD2811] (first compound max 10 µM, 7x7, partner max 1 µM) | -0.0508 | 0.0986 | -0.0479 | 0.0162 | -0.0364 | -0.0735 | -0.0138 | -0.017 | -0.0123 | -0.0557 | -0.0556 | -0.0527 | -0.069 | 0.0388 | -0.0239 | -0.0474 | 0.0014 | -0.0315 | 0.0812 | 0.016
Cn1cnc2c(F)c(Nc3ccc(Br)cc3Cl)c(C(=O)NOCCO)cc21 [Selumetinib] + C[C@@H]1COCCN1C2=NC(=NC(=C2)C3(CC3)[S@](=N)(=O)C)C4=C5C=CNC5=NC=C4 [AZD6738] (first compound max 10 µM, 7x7, partner max 10 µM) | -0.043 | 0.0218 | -0.0153 | 0.0486 | -0.0364 | -0.0576 | 0.0023 | 0.0551 | 0.012 | -0.0719 | -0.0316 | 0.0731 | -0.0003 | 0.046 | -0.0202 | -0.046 | -0.0124 | 0.0553 | 0.0511 | 0.0599
CC(=O)Nc1cccc(-n2c(=O)n(C3CC3)c(=O)c3c(Nc4ccc(I)cc4F)n(C)c(=O)c(C)c32)c1 [Trametinib] + Cc1nc(-c2cn3c(n2)-c2ccc(-c4cnn(C(C)(C)C(N)=O)c4)cc2OCC3)n(C(C)C)n1 [Taselisib] (first compound max 1 µM, 7x7, partner max 10 µM) | -0.0292 | 0.132 | 0.0479 | 0.0744 | 0.003 | 0.0046 | 0.156 | 0.186 | 0.151 | 0.077 | 0.0234 | 0.173 | 0.0805 | 0.158 | 0.037 | 0.0985 | 0.0085 | 0.0288 | 0.119 | 0.0957
CC1(C)CCC(CN2CCN(c3ccc(C(=O)NS(=O)(=O)c4ccc(NCC5CCOCC5)c([N+](=O)[O-])c4)c(Oc4cnc5[nH]ccc5c4)c3)CC2)=C(c2ccc(Cl)cc2)C1 [Venetoclax] + C1CN(CCC1(C(=O)N[C@@H](CCO)C2=CC=C(C=C2)Cl)N)C3=NC=NC4=C3C=CN4 [Capivasertib] (first compound max 1 µM, 7x7, partner max 3 µM) | -0.0858 | -0.0952 | -0.0094 | -0.0453 | -0.0673 | -0.0113 | -0.0596 | -0.0114 | 0.058 | -0.0998 | -0.0214 | 0.0237 | -0.0305 | -0.0123 | -0.0288 | -0.0365 | -0.0181 | -0.0351 | -0.0028 | -0.0522
CC1(C)CCC(CN2CCN(c3ccc(C(=O)NS(=O)(=O)c4ccc(NCC5CCOCC5)c([N+](=O)[O-])c4)c(Oc4cnc5[nH]ccc5c4)c3)CC2)=C(c2ccc(Cl)cc2)C1 [Venetoclax] + C=CCn1c(=O)c2cnc(Nc3ccc(N4CCN(C)CC4)cc3)nc2n1-c1cccc(C(C)(C)O)n1 [AZD1775] (first compound max 1 µM, partner max 1 µM) | 0.025 | -0.001 | -0.0118 | 0.0262 | -0.0296 | -0.0814 | -0.0466 | -0.0225 | 0.207 | 0.0526 | -0.043 | -0.0286 | 0.0074 | -0.009 | -0.067 | 0.0439 | 0.0736 | -0.0359 | -0.0281 | -0.0476
